From ChEMBL document CHEMBL4483862, “Open-source discovery of chemical leads for next-generation chemoprotective antimalarials” (2018)

Test system: Plasmodium berghei
Assay: Luciferase/luciferin-expressing antifolate-resistant parasites were used to infect a culture of HepG2 cells that were pre-incubated with compounds. Infected hepatocytes emit light due to the luciferase reaction. Assay results are presented as the percent inhibition of light emission compared to control. […]
Type: functional
Conditions: sporozoite; for IC90: read-out: LUCIFERASE INFECTION ASSAY - IC90
[1] = read-out: LUCIFERASE INFECTION ASSAY - IC50

Structure (SMILES) | IC90 [µM] | IC50 [1] [µM] | other results
Cc1nn(C(=O)Nc2cccc(C(F)(F)F)c2)c(C)c1Sc1ccc(C(F)(F)F)cn1 | > 7.17 |  | IC50 (HEPG2TOX_HILL_SLOPE 21.1, HEPG2TOX_R_SQUARED 0.715, PBLUC_HILL_SLOPE 11, PBLUC_R_SQUARED 0.14, read-out: LUCIFERASE INFECTION ASSAY - IC50): 6.09 µM
O=C(/C=C/c1cc([N+](=O)[O-])ccc1OC(F)F)N1CCN(C(c2ccccc2)c2ccccc2)CC1 | > 10 | > 10 | 
CN(Cc1ccc(C(N)=O)cc1)c1ncnc2ccccc12 | 1.53 |  | IC50 (HEPG2TOX_HILL_SLOPE 2.36, HEPG2TOX_R_SQUARED 0.863, PBLUC_HILL_SLOPE 14.7, PBLUC_R_SQUARED 0.585, read-out: LUCIFERASE INFECTION ASSAY - IC50): 1.32 µM
CN(C)c1cccc(-c2cnc3cnc(-c4cnn(C)c4)cn23)c1 | > 10.4 |  | IC50 (PBLUC_HILL_SLOPE 12.7, PBLUC_R_SQUARED 0.283, read-out: LUCIFERASE INFECTION ASSAY - IC50): 8.89 µM
Cc1[nH]ncc1CCCNc1nc(C(F)(F)F)nc2ccccc12 | > 10 |  | IC50 (FFLUC_HILL_SLOPE 6.95, FFLUC_R_SQUARED 0.127, read-out: LUCIFERASE INFECTION ASSAY - IC50): > 10 µM
COc1cccc(/C=C/C(=O)Nc2nc3c(s2)CN(C(=O)OC(C)(C)C)CC3)c1 | 0.475 | 0.387 | 
CC(C)C(NC(=O)c1ccc(F)cc1)C(=O)NCC1Cc2ccccc21 (stereo unspecified) | > 10 |  | IC50 (PBLUC_HILL_SLOPE 3.06, PBLUC_R_SQUARED 0.302, read-out: LUCIFERASE INFECTION ASSAY - IC50): 6.96 µM
Cc1ccc2cccc(Oc3ncnc4scc(-c5ccccc5)c34)c2n1 | > 10 |  | IC50 (HEPG2TOX_HILL_SLOPE 0.0481, HEPG2TOX_R_SQUARED 0.388, PBLUC_HILL_SLOPE 1.34, PBLUC_R_SQUARED 0.656, read-out: LUCIFERASE INFECTION ASSAY - IC50): 5.34 µM
CC1Sc2ccc(C(=O)Nc3ccnn3Cc3cccc(Cl)c3Cl)cc2NC1=O (stereo unspecified) | > 10 | > 10 | 
COCCNc1nc(-c2ccc(Cl)cc2)nc2ccccc12 | > 10.5 | > 10.5 | 
Cc1nc(-c2ccc3c(c2)CC(=O)N3C)cs1 | > 10 | > 10 | 
O=C(Nc1nc2c(F)cc(F)cc2s1)c1cnccn1 | > 10 | > 10 | 
O=C(COCc1ccccc1)Nc1nc2ccccn2c1C(=O)NC1CCCCC1 | > 8.12 | > 8.12 | 
O=C(c1ccc(-n2cccn2)cc1)N1CCC(n2c(=O)[nH]c3ccccc32)CC1 | > 10 |  | IC50 (HEPG2TOX_HILL_SLOPE 0.884, HEPG2TOX_R_SQUARED 0.19, PBLUC_HILL_SLOPE 11.8, PBLUC_R_SQUARED 0.218, read-out: LUCIFERASE INFECTION ASSAY - IC50): 9.85 µM
O=C(Nc1cccc(Cl)c1)N1CCN(C(=O)c2ccoc2)CC1 | > 10 | > 10 | 
CN(Cc1ccccc1NC(=O)/C=C/c1cnn(-c2ccccc2)c1)C1CCCCC1 | > 10 |  | IC50 (PBLUC_HILL_SLOPE 13.5, PBLUC_R_SQUARED 0.731, read-out: LUCIFERASE INFECTION ASSAY - IC50): 8.68 µM
COCC(C)n1c(C)cc(C(=O)CSc2ccc(NC(C)=O)cc2)c1C (stereo unspecified) | > 10 |  | IC50 (PBLUC_HILL_SLOPE 0.698, PBLUC_R_SQUARED 0.74, read-out: LUCIFERASE INFECTION ASSAY - IC50): 0.948 µM
NC(Cc1ccccc1)c1csc(Nc2ccc(C(=O)c3ccccc3)cc2)n1 (stereo unspecified) | 1.15 |  | IC50 (HEPG2TOX_HILL_SLOPE 7.62, HEPG2TOX_R_SQUARED 0.882, PBLUC_HILL_SLOPE 15.6, PBLUC_R_SQUARED 0.562, read-out: LUCIFERASE INFECTION ASSAY - IC50): 1 µM
COc1cccc(C(=O)Nc2nc3ccc(C)cn3c2C(=O)NC2CCCC2)c1 | 3.16 |  | IC50 (HEPG2TOX_HILL_SLOPE 1.86, HEPG2TOX_R_SQUARED 0.913, PBLUC_HILL_SLOPE 11.1, PBLUC_R_SQUARED 0.319, read-out: LUCIFERASE INFECTION ASSAY - IC50): 2.59 µM
Cc1[nH]c2ccccc2c1C1=NNC(=NCc2ccc3c(c2)OCO3)SC1 | > 10 |  | IC50 (FFLUC_HILL_SLOPE 2.18, FFLUC_R_SQUARED 0.288, PBLUC_HILL_SLOPE 2.54, PBLUC_R_SQUARED 0.596, read-out: LUCIFERASE INFECTION ASSAY - IC50): 4.55 µM
CC(=O)c1cccc(NC(=O)Nc2ccc3nc(Cc4ccccc4)nn3c2)c1 | 4.13 |  | IC50 (HEPG2TOX_HILL_SLOPE 12.7, HEPG2TOX_R_SQUARED 0.848, PBLUC_HILL_SLOPE 19.5, PBLUC_R_SQUARED 0.366, read-out: LUCIFERASE INFECTION ASSAY - IC50): 3.69 µM
CCOC(=O)c1c(-c2ccc(F)cc2)csc1NC(=O)CSc1nc2c(c(-c3ccccc3)c1C#N)C(=O)CC(C)(C)C2 | > 10 |  | IC50 (FFLUC_HILL_SLOPE 18.8, FFLUC_R_SQUARED 0.892, read-out: LUCIFERASE INFECTION ASSAY - IC50): > 10 µM

Structure (SMILES) | IC90 [µM] | IC50 [1] [µM] | other results
CCOC(=O)c1c(C)[nH]c(C(=O)OCC(=O)NC23CC4CC(CC(C4)C2)C3)c1C | > 10 | > 10 | 
CCn1cc(CN(C)C(=O)c2sc3cccc(Cl)c3c2Cl)c(C)n1 | > 8.63 | > 8.63 | 
O=C(Nc1cccc(C(F)(F)F)c1)Nc1cnn(-c2ccc(Cl)cc2)c1C(F)(F)F | > 7.35 |  | IC50 (PBLUC_HILL_SLOPE 0.579, PBLUC_R_SQUARED 0.471, read-out: LUCIFERASE INFECTION ASSAY - IC50): 1.04 µM
Cc1cccc(N2CCN(C(=O)c3cccc(S(=O)(=O)N4CCc5ccccc5C4)c3)CC2C)c1 (stereo unspecified) | > 10 |  | IC50 (HEPG2TOX_HILL_SLOPE 1.53, HEPG2TOX_R_SQUARED 0.865, read-out: LUCIFERASE INFECTION ASSAY - IC50): > 10 µM
CCOC(=O)c1cc(C#N)c(Sc2n[nH]c(=O)n2C(C)C)nc1C(F)(F)F | > 8.22 |  | IC50 (HEPG2TOX_HILL_SLOPE 15.1, HEPG2TOX_R_SQUARED 0.842, PBLUC_HILL_SLOPE 4.42, PBLUC_R_SQUARED 0.232, read-out: LUCIFERASE INFECTION ASSAY - IC50): 5.41 µM
CCCCNS(=O)(=O)c1ccc2nc(SCC3CCCO3)[nH]c2c1 (stereo unspecified) | > 10 |  | IC50 (HEPG2TOX_HILL_SLOPE 0.14, HEPG2TOX_R_SQUARED 0.119, PBLUC_HILL_SLOPE 2.38, PBLUC_R_SQUARED 0.33, read-out: LUCIFERASE INFECTION ASSAY - IC50): 9.76 µM
CN1CCN(c2nc(-c3c[nH]c4ccccc34)c(-c3ccccc3)s2)CC1 | > 10 |  | IC50 (PBLUC_HILL_SLOPE 45.6, PBLUC_R_SQUARED 0.243, read-out: LUCIFERASE INFECTION ASSAY - IC50): 9.92 µM
CCN(CC)CCn1c(NC(=O)c2cc(-c3cccs3)nn2-c2ccccc2)nc2ccccc21 | > 10 |  | IC50 (PBLUC_HILL_SLOPE 2.69, PBLUC_R_SQUARED 0.0924, read-out: LUCIFERASE INFECTION ASSAY - IC50): 6.76 µM
Cn1cc(-c2cn3c(-c4ccc(C#N)cc4)cnc3cn2)cn1 | > 11 |  | IC50 (PBLUC_HILL_SLOPE 4.44, PBLUC_R_SQUARED 0.515, read-out: LUCIFERASE INFECTION ASSAY - IC50): 9.55 µM
COc1cc2c(cc1OC)CN(CCNc1ncnc3sccc13)CC2 | > 10 |  | IC50 (HEPG2TOX_HILL_SLOPE 2.69, HEPG2TOX_R_SQUARED 0.552, PBLUC_HILL_SLOPE 1.83, PBLUC_R_SQUARED 0.419, read-out: LUCIFERASE INFECTION ASSAY - IC50): 3.93 µM
O=C1C(Cl)=C(Nc2ccc(O)cc2)C(=O)c2ccccc21 | 4.51 |  | IC50 (FFLUC_HILL_SLOPE 7.86, FFLUC_R_SQUARED 0.408, HEPG2TOX_HILL_SLOPE 4.2, HEPG2TOX_R_SQUARED 0.984, PBLUC_HILL_SLOPE 12.7, PBLUC_R_SQUARED 0.571, read-out: LUCIFERASE INFECTION ASSAY - IC50): 3.8 µM
O=S(=O)(Oc1cccc(C(F)(F)F)c1)c1cc(S(=O)(=O)c2ccccc2)cs1 | > 7.36 | > 7.36 | 
Cn1c(CSc2cccs2)nnc1SCC(=O)Nc1ccc(F)cc1F | > 8 | > 8 | 
OC(c1ccc(F)c(Cl)c1)c1nnc(Nc2cc(C(F)(F)F)ccc2F)s1 (stereo unspecified) | > 10 |  | IC50 (PBLUC_HILL_SLOPE 15.9, PBLUC_R_SQUARED 0.206, read-out: LUCIFERASE INFECTION ASSAY - IC50): 9.29 µM
CCOC(=O)c1sc(N2N=C3/C(=C/c4ccccc4Cl)CCCC3C2c2ccccc2Cl)nc1C (stereo unspecified) | > 10 |  | IC50 (FFLUC_HILL_SLOPE 1.4, FFLUC_R_SQUARED 0.297, PBLUC_HILL_SLOPE 2.64, PBLUC_R_SQUARED 0.0563, read-out: LUCIFERASE INFECTION ASSAY - IC50): 4.97 µM
O=C(Nc1ccccc1)Nc1cncc(C#Cc2ccccc2)c1 | 10.2 |  | IC50 (PBLUC_HILL_SLOPE 6.32, PBLUC_R_SQUARED 0.624, read-out: LUCIFERASE INFECTION ASSAY - IC50): 7.23 µM
CS(=O)(=O)Nc1ccc(-c2csc(NC(=O)c3ccc4ncsc4c3)n2)cc1 | > 10 | > 10 | 
CNc1nn(C(=O)Nc2cccc(C(F)(F)F)c2)cc1[N+](=O)[O-] | > 10 |  | IC50 (PBLUC_HILL_SLOPE 3.4, PBLUC_R_SQUARED 0.508, read-out: LUCIFERASE INFECTION ASSAY - IC50): 5.63 µM
O=C(Nc1ncccc1O)c1ccc(S(=O)(=O)NCCc2cccs2)cc1 | 0.176 | 0.134 | 
COCCNc1ccc2ncc(-c3ccc(Cl)cc3)n2n1 | 5.92 |  | IC50 (HEPG2TOX_HILL_SLOPE 7.9, HEPG2TOX_R_SQUARED 0.252, PBLUC_HILL_SLOPE 6.86, PBLUC_R_SQUARED 0.283, read-out: LUCIFERASE INFECTION ASSAY - IC50): 4.3 µM
CCc1cccc2c(C3=CCN(c4ncccn4)CC3)c[nH]c12 | > 10 | > 10 | 
